Data on 5 compounds can be found in patent publication US8367313B2, “Method of determining sperm capacitation” (Cornell University, priority 2003, dated 2013).

Entries after “also recorded” stand apart in the source; their conditions may differ. Where two headings read alike, the source gives them in different places.

One experiment deals with murine sperm. In words: Protein tyrosine phosphorylation / capacitation of sperm. Format: cell-based, mouse.
For experiment [1], the system named is GM1 localization in murine sperm. It is filed as cell-based, mouse.
Experiment [2] deals with sterols in sperm plasma membrane. The following applies: exposure of sperm to sterol acceptor; cited from earlier work.
The mark [3] stands for this setting: incubation with the stimulus alone.
Setting [4] is: Fixative A: 0.004% paraformaldehyde, mouse sperm.
Setting [5] is: Fixative B: 1.25% paraformaldehyde, 2.5% glutaraldehyde, 100 mM sodium cacodylate, 0.5 mM CaCl2.
[6] abbreviates: Fixative C: 4% paraformaldehyde, 0.1% glutaraldehyde, 1 mM CaCl2.

Consider `[Ca+2]` [Ca^++], for which, in the experiment with murine sperm (setting [3]), the “ability to cause tyrosine phosphorylation or capacitation” value (shortened to “ability”) is given as “not sufficient”.
Regarding `O=C([O-])O.[Na+]` [NaHCO3], the “ability” value in the experiment with murine sperm is recorded as “not sufficient”. Also, in experiment [1], the “GM1 staining localization after exposure to stimulus” value is “staining was observed in the apical acrosome and post-acrosomal region”; the “sperm with Pattern D (diffuse)” value is given as 3.2%.
On to `CC(=O)[C@H]1CC[C@H]2[C@@H]3CCC4=CC(=O)CC[C@]4(C)[C@H]3CC[C@]12C` [progesterone], for which, in experiment [1] (after capacitating incubation (bicarbonate and 2-OHCD), then progesterone 10 μg/ml for 10 minutes), the “GM1 staining localization after induction of acrosomal exocytosis” value is given as “a signal over the apical acrosome alone; also recorded: concentrated in the region of the apical acrosome”.
As to “(2-hydroxypropyl)-β-cyclodextrin [2-OHCD]”, the “effect on filipin-sterol complexes (FSC)” value in experiment [2] is listed as “loss of most FSC from the plasma membrane overlying the acrosome”. For the same compound, the “ability” value with murine sperm (setting [3]) was “not sufficient”. The “shift in CTb labeling pattern (FIG. 3/FIG. 4 patterns A, B, C)” value in experiment [1] (45 minute incubation, 10 mM HCO3− or 3 mM 2-OHCD, 0.004% paraformaldehyde) was “shifts to pattern “C.””. Moreover, in experiment [1] (setting [4]), the “sperm with Pattern A (acrosomal)” value is “Ns”; the “sperm with Pattern AA/PA (apical acrosome and post-acrosomal)” value (“sperm with Pattern AA/PA” for short) amounted to 28.8%; the “sperm with Pattern D (diffuse)” value is 40.4%; the “sperm with Pattern PA (post-acrosomal)” value worked out at 37.9%. The “sperm with Pattern D (diffuse)” value in experiment [1] (Fixative A: 0.004% paraformaldehyde, mouse sperm, listed as cyclodextrin) is on record as “approximately 40%”. For the same compound, in experiment [1] (setting [5]), the “sperm with Pattern A (acrosomal)” value is on record as 41.8%; the “sperm with Pattern AA/PA” value is on record as 0%; the “sperm with Pattern D (diffuse)” value was determined as 0%; the “sperm with Pattern PA (post-acrosomal)” value is on record as 58.2%. In addition, in experiment [1] (setting [6]), the “sperm with Pattern A (acrosomal)” value was 80.5%; the “sperm with Pattern AA/PA” value amounted to 0.2%; the “sperm with Pattern D (diffuse)” value is 0%; the “sperm with Pattern PA (post-acrosomal)” value stood at 19.4%. The “GM1 staining localization after exposure to stimulus” value in experiment [1] (sperm fixed with 0.004% paraformaldehyde) is on record as “a signal in the plasma membrane overlying the acrosome as well as in the post-acrosomal region”.
Turning to bovine serum albumin [BSA], the “effect on filipin-sterol complexes (FSC)” value in experiment [2] was “loss of most FSC from the plasma membrane overlying the acrosome”.
